Read-outs that look alike come from different tables or passages of the source.
Assays:
human PBMCs = test: MTS cytotoxicity in human PBMCs; settings: seven days
Influenza Virus (H7N7) = test: microbe, parasite or virus in culture; format: cell-based, avian influenza virus (Fowl Plaque Virus; settings: unidentified influenza virus, H7N7, A549, 16 h, read-out: Antiviral Activity % Inhibition
Ebola Virus = test: microbe, parasite or virus in culture; format: cell-based; settings: Zaire ebolavirus, Vero, read-out: Antiviral Activity % Inhibition
[1] = tested on: HCV subgenomic replicon of genotype 1b; test: microbe, parasite or virus in culture; format: cell-based; settings: Hepatitis C virus, 24 h, read-out: Antiviral Activity EC50/nM
HIV-191US005 = test: Anti-HIV efficacy in fresh human PBMCs (RT activity and p24 ELISA); format: cell-based, HIV-1; settings: Human immunodeficiency virus 1, PBMC, 168 h

COc1cccc(-c2ccc(NC(=O)C3=C(C(=O)O)CCC3)c(F)c2)c1 [Compound 6, 2-(3-Fluoro-3′-methoxy-biphenyl-4-ylcarbamoyl)-cyclopent-1-enecarboxylic acid]
TC50/nM (human PBMCs): >100000 nM | inhibition at 30 µM (Influenza Virus (H7N7)): > 80% | inhibition at 31.6 µM (Ebola Virus): 90% | inhibition at 100 µM (Ebola Virus): > 98% | EC50 [1]: 4640 nM | EC50 (HIV-191US005; read-out: EC50/nM, Endpoint RT, seven days): 2190 nM | EC50 (HIV-191US005; read-out: EC50/nM, Endpoint p24, seven days): 1970 nM | EC90 (HIV-191US005; read-out: EC90/nM, Endpoint RT, seven days): 6110 nM | EC90 (HIV-191US005; read-out: EC90/nM, Endpoint p24, seven days): 6250 nM

Reference: patent US8354433B2, “Anti-inflammatory agents as virostatic compounds” (4SC AG, priority 2009, dated 2013)
